Measured values reported in patent publication US20230103444A1 (The Regents of the University of Colorado, a Body Corporate, priority 2020, published 2023).
“Also recorded” adds a separate entry of the source.

Experiments:
[1] = tested on: HCT-116 and DLD1CHD1L-OE cells; test: Clonogenic colony formation after 24 h pretreatment (CSC stemness); format: cell-based, human; details: colonies over 10 days
Description: To assess CHD1L inhibitors for their ability to suppress CSC stemness, HCT-116 or CHD1L overexpressing DLD1 cell lines were pre-treated in monolayer cultures for 24 h with vehicle control (0.5% DMSO) or CHD1L inhibitors at the concentrations indicated in FIG. 2C. Pretreated viable cells were plated at 1,000 cells/well in 6-well plates or 200 cells/well in a 24-well plates. Colonies were analyzed using the IncuCyte® S3 2018A (Sartorius, France) software (with the following parameters modified from default: (1) for HCT116 cells segmentation adjustment=0.6; Min area (μm2)=3×104; Max area (μm2)=1.6×106; Max eccentricity=0.9; (2) for DLD1CHD1L OE cells segmentation adjustment=1; Min area (μm2)=1×104; Max area was not constrained; Max eccentricity=0.95. Experiments were replicated 2× (n=2 for each experiment).

[2] = tested on: E-cadherin promoter activity; test: EcadPro-RFP reporter 3D high-content imaging in tumor organoids; format: cell-based; details: 72 h; for EC50: Homo sapiens, SW-620, read-out: EC50 upregulation of E-cadherin promoter activity, SW620 tumor organoids
Description: After validating hits 5-7 against CHD1L mediated TCF transcription, the ability of these compounds to reverse EMT and other malignant properties in CRC were evaluated. E-cadherin and vimentin are putative biomarkers for the epithelial and mesenchymal phenotypes, respectively. [McDonald et al., 2015] Loss of E-cadherin and gain of vimentin are also clinical biomarkers of poor prognosis. [Yun et al., 2014; Richardson et al., 2012; Dhanasekaran et al., 2001; Kashiwagi et al., 2010; Toiyama et al., 2013] Accordingly, lentiviral promoter driven reporters for E-cadherin (pCDH1-EcadPro-RFP) and vimentin (pCDH1-VimPro-GFP) were developed, which faithfully report E-cadherin and vimentin protein expression, respectively. [Zhou et al., 2016; Abraham et al., 2019] SW620 cells transduced with either EcadPro-RFP or VimPro-GFP were cultured as tumor organoids for 72 h, reaching a diameter of 600 μm. Tumor organoids were treated with compounds 5-7 for an additional 72 h to determine the effective concentration 50 percent (EC50) for modulating promoter activity. Changes in promoter expression was quantified using a 3D confocal image […] based high-content analysis algorithm (FIG. 2A-2B). [Zhou et al., 2016; Abraham et al., 2019]
CHD1L has been reported to confer anti-apoptotic activity by inhibiting activation of caspase-dependent apoptosis. [Li et al., 2013; Sun et al., 2016] Additionally, reversal or inhibition of EMT is known to restore apoptotic activity of cancer cells. [Lu et al., 2014] To determine if CHD1L inhibitors reverse EMT prior to induction of cell death, E-cadherin expression by EcadPro-RFP reporter activity was monitored and cytotoxicity was measured using the CellTox™ Green assay. Cells were treated with CHD1L inhibitors for 72 h and imaged every 2 h.
Stable VimPro-GFP or EcadPro-RFP SW620 reporter cells were generated using pCDH imPro-GFP-EF1-puro virus or pCDH-EcadPro-mCherry-EF1-puro virus as previously reported. [Zhou et al., 2016; Abraham et al., 2019] The stable fluorescently labeled reporter cells were used to generate tumor organoids as described herein. Tumor organoids were treated with CHD1L inhibitors at 10 μM for an additional 72 h. Following treatment, tumor organoids were stained with 16 μM of Hoechst 33342 for 1 h (nuclei stain). Images were taken with a 5× air objective. Z-stacks were set at 26.5 μm apart for a total of 15 optical slices. Imaging and high-content analysis were performed using an Opera Phenix™ and Harmony® software (PerkinElmer, Hopkinton, Mass.). Nuclei were identified within each layer and cells were found with either GFP or mCherry channel. The fluorescence intensities of each channel were calculated and thresholds were set based on the background intensities. Percentages of GFP or mCherry RFP positive cells were calculated and normalized to the DMSO treated group.
3D High-Content Imaging and Analysis of EMT Dual-Reporter Activity. Tumor organoids were imaged using the Opera Phenix high-content screening system (PerkinElmer) in confocal mode utilizing a 10× air objective (NA 0.3). The following excitation and emission (Ex/Em) wavelengths were employed: RFP (561/570-630) and GFP (488/500-550). Organoids were also imaged in Brightfield to segment and perform high-content analysis of dual reporter specific fluorescence intensity. RFP fluorescent signal correlates with E-Cadherin promoter activity, while GFP fluorescent signal is correlates with vimentin promoter activity. Both fluorescent signals were quantified and normalized as previously described. (Esquer, et al., 2021)

HCT116 cells = test: Invasion assay (scratch wound in Matrigel); format: cell-based, human; details: 50% Matrigel, 48-72 h
Description: A hallmark of EMT is an increase in CSC stemness and cell invasion. Therefore, the ability of compounds 5-7 to inhibit migration and invasion in HCT-116 and DLD1^CHD1L-OE cells was tested. […] Note that DLD1^CHD1L-OE cells form two times more colonies than HCT-116 cells, which have moderate CHD1L expression. This observation is consistent with CHD1L's oncogenic and tumorigenic properties. Next, using HCT-116 cells with uniform scratch wounds imbedded in 50% Matrigel® matrix (Corning Life Sciences, Corning, N.Y.) cells were treated with CHD1L inhibitors at concentrations indicated and invasion was monitored over 72 h.
HCT116 cells were plated at 60,000 cells/well into an IncuCyte® ImageLock 96-well plate (Sartorius, France) and allowed to attach overnight. A wound was created in all wells using the IncuCyte® WoundMaker then washed 2× with PBS. The plate was brought to 4° C. using a Corning XT Cool Core to avoid polymerization of the Matrigel® matrix (Corning Life Sciences, Corning, N.Y.) during the preparation of the invasion conditions. Wells were coated with 50 μL of 50% Matrigel® matrix in RPMI-1640 media. Plates were centrifuged at 150 rpm at 4° C. for 3 min, using a swing bucket rotor to ensure even matrix coating with no air bubbles. […]

SMILES	inhibition of CSC stemness (clonogenic colony formation), in words [1]	upregulation of E-cadherin promoter activity (EcadPro-RFP), in words ([2]; SW620 or HCT116 tumor organoids)	inhibition of invasion, in words (HCT116 cells)	inhibition of CSC stemness (clonogenic colony formation), in words ([1]; listed as 6.0)	E-cadherin expression before onset of cytotoxicity ([2]; EcadPro-RFP reporter and CellTox Green, imaged every 2 h, relative to DMSO)	EC50 [2]	inhibition of invasion, in words (HCT116 cells; listed as 6.0)
Cc1cc(Nc2ccc(NC(=O)c3c[nH]c4ccccc34)cc2)nc(N2CCCC2)n1 [Compound 6.3, N-(4-((6-methyl-2-(pyrrolidin-1-yl)pyrimidin-4-yl)amino)phenyl)-1H-indole-3-carboxamide]	significantly inhibits clonogenic colony formation	upregulation of E-cadherin promoter activity	significantly inhibits HCT116 invasive potential				
Cc1cc(Nc2ccc(NC(=O)Cc3cccs3)cc2)nc(N2CCCC2)n1 [Compound 6, N-(4-((6-methyl-2-(pyrrolidin-1-yl)pyrimidin-4-yl)amino)phenyl)-2-(thiophen-2-yl)acetamide]				more potent dose dependent inhibition; also recorded: significantly inhibits CSC stemness	significant increase in E-cadherin expression prior to induction of cytotoxicity	11.4 ± 0.3 µM	most potent activity
COc1ccc(-c2nc(S(=O)(=O)c3ccccc3)c(S(C)(=O)=O)o2)cc1 [Compound 5]	more potent dose dependent inhibition					11.9 ± 0.3 µM	
